77 molecules from the OPERA property sets (Mansouri et al. 2018) can be followed below.

Where a SMILES comes first, the peptide text is derived from it.

One may read the logP as the decadic logarithm of the partition coefficient of the neutral form, usually between octanol and water. A higher logP goes with higher lipophilicity.

`CCN(CC)C(=O)c1cn2c(C)c(C)nc2c2c1CCC(c1ccccc1)O2` (configuration not stated) registered a logP of 4. For the molecule `Cc1ccc(C)c(Cc2cnc[nH]2)c1`, the logP stood at 2.72. The value for `CC(C)OP(=O)(OC(C)C)C(Cl)(Cl)P(=O)(OC(C)C)OC(C)C` was 2.89; that for `Nc1nc(N)nc(O)n1` was -0.19. Molecule `Cc1ccccc1C1CCc2c(C(=O)N(C)C)cn3c(C)c(C)nc3c2O1` (configuration not stated) yielded a logP of 3.5. In the case of `C=CCN(N=O)C(=O)N(CCCCC(NC(C)=O)C(=O)NCc1ccccc1)Cc1ccccc1` (configuration not stated) it was 2.7. In the case of `CS(=O)(=O)c1cccc2nc(N)nc(N)c12` it was 0.63; in that of `O=C1N=C(N2CCOCC2)CN1Cc1ccccc1`, 0.5. For the molecule `CC(C)NC(=NC#N)NS(=O)(=O)c1cnccc1NC1CCCCCC1`, the logP was 2.07. The value for `O=Cc1ccc2ccc3cccc4ccc1c2c34` was 4.23.

In turn, `CCOc1ccc(-n2nnnc2N)cc1` showed a logP of 1.32.

Regarding `COc1ccccc1N1CCN(c2ccc(Nn3c(C)ccc3C)nn2)CC1`, the logP amounted to 3.61.

As for `CCC(=O)NCc1c(O)c(=O)cc(C)n1C`, the logP was -0.72. In the case of `O=C(O)CCCCCON=C(c1ccnnc1)c1cccc(C(F)(F)F)c1` it was 3.38. The value for `CC(C)=CC1C(C(=O)OCc2cccc(S(C)(=O)=O)c2)C1(C)C` (configuration not stated) was 3.83. The value for `CNc1ccc(S(=O)(=O)N(C)C)cc1` was 1.43; that for `Clc1cccc(N2CCN(CCn3nc4ccccc4n3)CC2)c1` was 4.1; that for `CCN(CC)NC(=O)NS(=O)(=O)c1ccc(C)cc1` was 0.47. As for `CCOC(=O)NNc1ccccc1`, the logP is 1.22.

The molecule `CCCN(CCCC(NC(C)=O)C(=O)NCc1ccccc1)C(=O)N(CCCl)N=O` (configuration not stated) yielded a logP of 1.57.

In turn, `COc1ccc(C2Cc3cc(Cl)ccc3N(CCN(C)C)C(=O)C2OC(C)=O)cc1` (configuration not stated) registered a logP of 4.2. The value for `CC(C)(C)[N+]([O-])=Cc1cccc(O)c1` was 1; that for `CC(C)=CCNc1ncnc2nc[nH]c12` was 2.2; that for `CCCNC(=O)N1C(=O)N(C)CC1O` (configuration not stated) was 0.99. As to `O=C(NC1CCCCC1)NS(=O)(=O)c1cnccc1NC1CCCCC1`, the logP stood at 4.23. As to `COC(=O)C(C)=CC1C(C(=O)OCc2ccccc2)C1(C)C` (configuration not stated), the logP was determined as 4.4. The logP values of the last two molecules are within 0.2 log units of each other. `O=C(NC1CCCCC1)NS(=O)(=O)c1cnccc1NC1CCCCCC1` came in with a logP of 4.59.

In turn, `O=C1Nc2ccc3cc4ccccc4nc3c2CO1` displayed a logP of 1.64. As to `CCNC(=O)NS(=O)(=O)c1cnccc1NC1CCCCCCC1`, the logP turned out to be 3.57. The value for `C#CC(C)(C)NCC(O)CON=C(C1CC1)C1CC1` (configuration not stated) was 1.6. The value for `CC(C)C[C@H](NC(=O)[C@@H](N)CC(C)C)C(=O)O` was -1.47; that for `CC(=O)Nc1ccc(/C=C/c2n[nH]c(=O)cc2C)cc1` was 1.27; that for `CCC(CC)(C(=O)OC)S(=O)(=O)c1ccc([N+](=O)[O-])cc1` was 2.24. `COc1cc2ncnc(Nc3cc(F)cc(C(F)(F)F)c3)c2cc1OC` gave a logP of 4.66. In the case of `NC(=O)c1[nH]cc(-c2ccc(Cl)cc2)c1N1CCOCC1` it was 2.4.

Turning to `CCOc1cccc(COC(=O)C2C(C=C(C)C(=O)OC)C2(C)C)c1` (configuration not stated), the logP was found to be 4.78. In the case of `CCCCCCCCCCCCCCNCCO` it was 5.74; in that of `O=C1c2cc([N+](=O)[O-])ccc2OCN1CCO[N+](=O)[O-]`, 1.66; in that of `O=C(O)CCCCON=C(c1ccnnc1)c1cccc(C(F)(F)F)c1`, 2.99. In the case of `CSCCC(N)C(=O)NC(CC(C)C)C(=O)O` (stereo not drawn) (H-Met-Leu-OH; configuration not given here) it was -1.84; in that of `CCC(C)C(N)C(=O)NC(C(=O)NC(C(=O)NC(C(=O)NCC(=O)O)C(C)CC)C(C)CC)C(C)CC` (configuration not stated) (H-IIIIG-OH; configuration not given here), -0.97; in that of `CC(C)CNC(=O)N1C(=O)N(C)CC1O` (configuration not stated), 1.32. `CC(=O)c1cc2ccc3cccc4ccc(c1)c2c34` showed a logP of 4.29. In turn, `c1ccc(N2CCN(CCn3nc4ccccc4n3)CC2)cc1` registered a log partition coefficient (logP) of 3.34.

The molecule `Fc1cccc(CNc2ncnc3nc[nH]c23)c1` gave a lipophilicity (logP) of 2.31.

`Cc1cc(=O)oc2c(C)c3occc3cc12`: the logP came out at 2.82. `C=CCC(C)(C(=O)OCC)S(=O)(=O)c1ccc([N+](=O)[O-])cc1` (configuration not stated) registered a logP of 2.3. The molecule `O=[N+]([O-])c1ccc(CSc2ncnc3c(C4OC(CO)C(O)C4O)n[nH]c23)cc1` (configuration not stated) returned a logP of 0.5. The value for `Cc1nc([N+](=O)[O-])c(Cl)[nH]1` was 1.06.

Consider `COC(=O)C(C)=CC1C(C(=O)OCc2cccc(Oc3ccccc3)c2)C1(C)C` (configuration not stated), for which the logP was 6.48. In the case of `NC(=O)C(CCN1CC2CCC(CC2)C1)(c1ccccc1)c1ccccn1` (configuration not stated) it was 2.72; in that of `COP(=O)(OC)Oc1ccc(C#N)cc1`, 0.84. `CNC(C)Cc1ccc(OC)cc1` (configuration not stated) displayed a logP of 1.91. `Cc1c2ccoc2cc2oc(=O)ccc12` gave a logP of 2.33. The value for `CC(C)(C)NCC(COc1nsnc1N1CCOCC1)OC(=O)C1CC1` (configuration not stated) was 3.54; that for `Cc1cccc(OCC2CN=C(N)O2)c1` (configuration not stated) was 1.75; that for `COc1ccc(CCNCC(O)COc2ccc(-c3nc(C)c(Cl)[nH]3)cc2)cc1OC` (configuration not stated) was 3.9. `COc1ccc(C2=NC(C(=O)O)CS2)c(O)c1OC` (configuration not stated): the lipophilicity (logP) came to 1.1.

With `CCCC(=O)OCOC(=O)N(C)N=Nc1ccc(C(=O)OCC)cc1`, the logP was determined as 4.51. In the case of `COc1ccc(CNCC(O)CON=C(C2CC2)C2CC2)c(OC)c1` (configuration not stated) it was 2.22. In the case of `C=CCNc1nc(CCC)nc(N2CCOCC2)n1` it was 2.37; in that of `Cc1sc2cc3oc(=O)cc(C)c3cc2c1C`, 3.48; in that of `CCCCCCC(=O)Oc1ccc2c3c1OC1C(OS(=O)(=O)O)C=CC4C(C2)N(C)CCC341` (configuration not stated), 0.36. The value for `CC(CC(=O)c1ccc(-c2ccc(F)cc2F)cc1)C(=O)O` (configuration not stated) was 3.78; that for `O=[N+]([O-])c1nccn1CC(O)COCF` (configuration not stated) was -0.4.

On to `Cc1ccc(CO)c(C=NNC(=O)c2ccc(N)cc2)c1O`, for which the logP turned out to be 2.16. In turn, `NS(=O)(=O)c1ccncn1` gave a logP of -0.2.

As for `CC(C)CC(NC(=O)C(Cc1ccc(O)cc1)NC(=O)C(N)Cc1ccc(O)cc1)C(=O)O` (stereo not drawn) (H-Tyr-Tyr-Leu-OH; configuration not given here), the logP was -1.38. The value for `C[C@]12CCC(=O)C=C1[C@@H]1C[C@@H]1[C@@H]1[C@@H]2CC[C@@]2(C)[C@H]1CC[C@@]21CCC(=O)O1` was 3.08; that for `Cn1c(=O)[nH]c2ncn(C)c2c1=O` was -0.22; that for `CC(C)CC(N)C(=O)NC(C)C(=O)NC(CC(C)C)C(=O)O` (stereo not drawn) (H-Leu-Ala-Leu-OH; configuration not given here) was -2.03. `OC(CNC1CCCCC1)CON=C(C1CC1)C1CC1` (configuration not stated) registered a logP of 2.64.

Molecule `O=C1c2ccccc2OCN1CCO[N+](=O)[O-]` registered a logP of 1.85.

In turn, `O=C1N=C(N2CCOCC2)CN1Cc1ccc(Br)cc1` displayed a logP of 1.4. Turning to `OCc1cnc(O)nc1O`, the logP is -1.94. The value for `c1cc2cc3c(cc2cn1)OCO3` was 1.75; that for `Cc1ccccc1C=[N+]([O-])C(C)(C)C` was 1.5.
